Patent US7049332B2, “HIV inhibiting N-aminoimidazole derivatives” (K. U. Leuven Research & Development, priority 2001, dated 2006)
Converted amounts (≈) assume the structure as drawn.

Legend:
MT-4 cells = experiment: Cytotoxicity in mock-infected MT-4 cells (MTT); format: cell-based
Method: (§1) A rapid and automated assay procedure was used for the in vitro evaluation of anti-HIV agents. An HTLV-1 transformed T4-cell line MT-4, which was previously shown to be highly susceptible to and permissive for HIV infection, served as the target cell line. Inhibition of the HIV-induced cytopathogenic effect was used as the end point. The viabitlity of both HIV-and mock-infected cells was assessed spectrophotometrically via in situ reduction of 3-(4,5-dimethylthiazol-2-yl)-2,5-diphenyltetrazolium bromide (MTT). The 50% cytotoxic concentration (CC50 in μg/ml) was defined as the concentration of compound that reduced the absorbance of the mock-infected control sample by 50%. The percent protection achieved by the compound in HIV-infected cells was calculated by the following formula: Examples of inhibition of cell proliferation by particular compounds of formula (I) can be found by looking at the respective CC50 values in the MT-4 cell line. Cells: MT-4 cells (Miyoshi et al., 1982) were grown and maintained in RPMI 1640 medium supplemented with 10% heat-inactivated fetal calf serum, 2 mM […], 0.1% sodium bicarbonate, and 20 œg of gentamicin per ml.

HIV-1 (NL4.3 WT) = experiment: Inhibition of HIV-induced cytopathogenic effect in MT-4 cells (MTT), HIV-1; format: cell-based; settings: for HIV-1 (NL4.3 WT) IC50 / IC50: 50% protection against HIV-induced cytopathogenic effect, MT-4 cells, MTT; for HIV-1 (NL4.3 WT) SI: selectivity index = ratio of CC50 to IC50, HIV-1; for IC50: Human immunodeficiency virus 1, MT4
Method: (§2) A rapid and automated assay procedure was used for the in vitro evaluation of anti-HIV agents. An HTLV-1 transformed T4-cell line MT-4, which was previously shown to be highly susceptible to and permissive for HIV infection, served as the target cell line. Inhibition of the HIV-induced cytopathogenic effect was used as the end point. The viabitlity of both HIV-and mock-infected cells was assessed spectrophotometrically via in situ reduction of 3-(4,5-dimethylthiazol-2-yl)-2,5-diphenyltetrazolium bromide (MTT). The 50% cytotoxic concentration (CC50 in μg/ml) was defined as the concentration of compound that reduced the absorbance of the mock-infected control sample by 50%. The percent protection achieved by the compound in HIV-infected cells was calculated by the following formula:
(§3) [formula] whereby (ODT)HIV is the optical density measured with a given concentration of the test compound in HIV-infected cells; (ODC)HIV is the optical density measured for the control untreated HIV-infected cells; (ODC)MOCK is the optical density measured for the control untreated mock-infected cells; all optical density values were determined at 540 nm. The dose achieving 50% protection according to the above formula was defmed as the 50% inhibitory concentration (IC50 in μg/ml). The ratio of CC50 to IC50 was defined as the selectivity index (SI).
(§4) Cells: MT-4 cells (Miyoshi et al., 1982) were grown and maintained in RPMI 1640 medium supplemented with 10% heat-inactivated fetal calf serum, 2 mM 1-glutamine, 0.1% sodium bicarbonate, and 20 œg of gentamicin per ml.
(§5) Viruses: The HIV-1(NL4.3) strain (Adachi et al., 1986) is a molecular clone obtained from the National Institutes of Health (Bethesda, Md.). The HIV-2(ROD) (Barr,-Sinoussi et al., 1983) stock was obtained from culture supernatant of HIV-2 infected cell lines.

HIV-2 (ROD) = experiment: Inhibition of HIV-induced cytopathogenic effect in MT-4 cells (MTT), HIV-2; format: cell-based; settings: for HIV-2 (ROD) IC50 / IC50: 50% protection against HIV-induced cytopathogenic effect, MT-4 cells, MTT; for HIV-2 (ROD) SI: selectivity index = ratio of CC50 to IC50, HIV-2; for IC50: Human immunodeficiency virus 2, MT4
Method: as §2, §3, §4, §5

[1] = Cytotoxicity in mock-infected MT-4 cells (MTT); format: cell-based; settings: human; mock-infected MT-4 cells, absorbance reduced by 50%, MTT
Method: as §1

SMILES	HIV-1 (NL4.3 WT) IC50 (HIV-1 (NL4.3 WT)) [µg/mL]	HIV-2 (ROD) IC50 (HIV-2 (ROD)) [µg/mL]	melting point [°C]	IC50 (HIV-1 (NL4.3 WT)) [µg/mL]	IC50 (HIV-2 (ROD)) [µg/mL]	cytotoxicity CC50 (MT-4 cells) [µg/mL]	HIV-1 (NL4.3 WT) SI (HIV-1 (NL4.3 WT))	HIV-2 (ROD) SI (HIV-2 (ROD))	CC50 [1] [µg/mL]
COc1cccc(Nn2c(-c3ccccc3)c(C)[nH]c2=S)c1 [Compound 9.31]	3.1	>12.3				12.3	4.0	<1	
Cc1[nH]c(=S)n(Nc2cccc(F)c2)c1-c1ccccc1 [Compound 9.18, 2,3-Dihydro-1-(3-fluorophenylamino)-4-methyl-5-phenyl-1H-imidazole-2-thione]			226	5.5 (≈ 18.4 µM)	> 47.3		8.6	<1	47.3 (≈ 158 µM)
Cc1[nH]c(=S)n(Nc2cccc(Br)c2)c1-c1ccccc1 [Compound 9.14, 1-(3-Bromophenylamino)-2,3-dihydro-4-methyl-5-phenyl-1H-imidazole-2-thione]			190	1.6 (≈ 4.44 µM)	> 17.1		10.5	<1	17.1 (≈ 47.5 µM)
Cc1ccc(Nn2c(-c3ccccc3)c(C)[nH]c2=S)cc1C [Compound 9.13, 2,3-Dihydro-1-(3,4-dimethylphenylamino)-4-methyl-5-phenyl-1H-imidazole-2-thione]			228	1.1 (≈ 3.55 µM)	> 17.9		16.3	<1	17.9 (≈ 57.8 µM)
Cc1ccc(Nn2c(-c3ccccc3)c(C)[nH]c2=S)cc1Cl [Compound 9.15, 1-(3-Chloro-4-methylphenylamino)-2,3-dihydro-4-methyl-5-phenyl-1H-imidazole-2-thione]			190	3.6 (≈ 10.9 µM)	> 16.9		4.7	<1	16.9 (≈ 51.2 µM)
Cc1[nH]c(=S)n(Nc2cccc(Cl)c2)c1-c1ccccc1 [Compound 9.01, 1-(3-Chlorophenylamino)-2,3-dihydro-4-methyl-5-phenyl-1H-imidazole-2-thione]			215 to 217	2.8 (≈ 8.87 µM)	2.6 (≈ 8.23 µM)		7.6	8.4	21.5 (≈ 68.1 µM)
Cc1[nH]c(=S)n(Nc2ccccc2)c1-c1ccccc1 [Compound 9.12, 2,3-Dihydro-4-methyl-5-phenyl-1-(phenylamino)-1H-imidazole-2-thione]			224 to 226	5.2 (≈ 18.5 µM)	> 14.7		2.8	<1	14.7 (≈ 52.2 µM)
Cc1[nH]c(=S)n(Nc2cccc([N+](=O)[O-])c2)c1-c1ccccc1 [Compound 9.17, 2,3-Dihydro-4-methyl-1-(3-nitrophenylamino)-5-phenyl-1H-imidazole-2-thione]			214	3.7 (≈ 11.3 µM)	> 15.4		4.2	<1	15.4 (≈ 47.2 µM)
Cc1[nH]c(=S)n(Nc2cccc(Cl)c2)c1-c1cccc(Cl)c1 [Compound 9.07, 5-(3-Chlorophenyl)-1-(3-chlorophenylamino)-2,3-dihydro-4-methyl-1H-imidazole-2-thione]			204	0.9 (≈ 2.57 µM)	1.4 (≈ 4 µM)		18.3	11.6	15.9 (≈ 45.4 µM)
Cc1cc(C)cc(Nn2c(-c3ccccc3)c(C)[nH]c2=S)c1 [Compound 9.30, 2,3-Dihydro-1-(3,5-dimethylphenylamino)-4-methyl-5-phenyl-1H-imidazole-2-thione]			240 to 242	0.3 (≈ 0.969 µM)	> 65.3		241.9	<1	65.3 (≈ 211 µM)
Cc1[nH]c(=S)n(Nc2cccc(Cl)c2)c1-c1cccc(C#N)c1 [Compound 9.32, 1-(3-Chlorphenylamino)-5-(3-cyanophenyl)-2,3-dihydro-4-methyl-1H-imidazole-2-thione]	13.8	>32.1				32.1	2.3	<1	

The next lines start with results.

HIV-1 (NL4.3 WT) IC50 (HIV-1 (NL4.3 WT)) [µg/mL]	HIV-2 (ROD) IC50 (HIV-2 (ROD)) [µg/mL]	melting point [°C]	IC50 (HIV-1 (NL4.3 WT)) [µg/mL]	IC50 (HIV-2 (ROD)) [µg/mL]	SMILES	cytotoxicity CC50 (MT-4 cells) [µg/mL]	HIV-1 (NL4.3 WT) SI (HIV-1 (NL4.3 WT))	HIV-2 (ROD) SI (HIV-2 (ROD))	CC50 [1] [µg/mL]
		218	0.5 (≈ 1.76 µM)	0.5 (≈ 1.76 µM)	Cc1ncn(Nc2cccc(Cl)c2)c1-c1ccccc1 [Compound 13.01, 1-(3-Chlorophenylamino)-4-methyl-5-phenyl-1H-imidazole]		6.0	6.9	3.25 (≈ 11.5 µM)
		159	1.4 (≈ 5.32 µM)	> 7.6	Cc1cccc(Nn2cnc(C)c2-c2ccccc2)c1 [Compound 13.09, 4-Methyl-1-(3-methylphenylamino)-5-phenyl-1H-imidazole]		5.6	<1	7.6 (≈ 28.9 µM)
3.4	>10.9				Cc1ncn(Nc2cccc(Cl)c2)c1-c1cccc(C#N)c1 [Compound 13.15, 1-(3-Chlorphenylamino)-5-(3-cyanophenyl)-4-methyl-1H-imidazole]	10.9	3.2	<1	
		164	0.5 (≈ 1.38 µM)	0.3 (≈ 0.827 µM)	Cc1ncn(Nc2cccc(Cl)c2)c1-c1cccc(Br)c1 [Compound 13.02, 5-(3-Bromophenyl)-1-(3-chlorophenylamino)-4-methyl-1H-imidazole]		6.7	9.5	3.13 (≈ 8.63 µM)
